# Test results from patent publication US20090306012A1, “THERAPEUTIC PROTOCOLS” (priority 2001, published 2009).
# Legend:
# cardiac myocytes [1] = experiment: In vivo cardiotoxicity (I): cardiac damage by electron microscopy; set-up: species or system Adult female Wistar rats; conditions: chronic exposure, rats
# From the text: (§1) Group 6 received no treatment.
# (§2) Immediately after animal sacrifice, a traverse section of the intraventricular septum was dissected from the heart and fixed in 2% glutaraldehyde, 2% paraformaldehyde and 4% glucose in phosphate buffer. Standard post-buffering, osmication and processing were followed. Specimens were examined with a Philip's electron microscope and the frequency and severity of cardiac damage in the myocardial cells were graded according to the method according to Billingham et al. (Can. Treat. Rep. 62: 865-872, 1978). In brief, blocks were selected that consisted predominantly of transected cardiac myocytes.
# Glutathione peroxidase = conditions: chronic exposure, vs control groups
# Experimental: One week after the last injection, the rats were killed by decapitation and internal organs were fixed in 10% v/v formalin in phosphate buffered saline. Prior to tissue fixation, portions of the kidney, liver, and skeletal muscle and heart were quickly removed and placed in tubes on ice. The tissue was either used immediately or stored at −80° C. until assayed. Each sample was minced into small pieces, washed vigorously in two changes of ice cold 0.25 M sucrose containing 1 mM EDTA, then washed in 50 mM potassium phosphate buffer pH 7.8 containing 0.1 mM EDTA prior to recording the tissues ‘wet’ weight. The tissue was then resuspended in 2 mL of ice-phosphate-EDTA buffer and homogenized on ice for three 5-second bursts over 5 minutes using an Ultraturrax homogenizer. The fine suspension was made up to a final volume of 4 mL with the phosphate-EDTA buffer and used for the enzyme and GSH assays described below.
# From the 4 mL tissue homogenate, 1 mL was transferred to a clean 1.5 mL Eppendorf and stored on ice. […]
# SOD activity was determined measuring the Cytochrome c by the method according to McCord & Fridovich (J. Biol. Chem. 244(22): 6056-6063, 1969). GP activity was assessed by an indirect coupled assay (Paglia & Valentine, J. Lab. Clin. Med. 70(1): 158-169, 1967). […]
# For control purposes, antioxidant loading from hepatic, renal and skeletal muscle extracts was also determined.
# [2] = test system: reduced glutathione (GSH); experiment: In vivo cardiotoxicity (II): tissue reduced glutathione (GSH) level; set-up: species or system Adult female spontaneously hypertensive rats; conditions: chronic exposure, vs control values
# Experimental: For the GSH assay, 0.25 mL of 25% w/v metaphosphoric acid was added to the 1 mL of the original crude homogenate, mixed thoroughly and incubated on ice for 15 minutes. The protein precipitate was pelleted by centrifugation at 10,000 g for 10 minutes at 4° C. The clear supernatant was transferred to a clean tube and either stored at −70° C. for no longer than three days or GSH levels were directly determined. The level of GSH was determined using a fluorometric assay using 0-phthalaldehyde as described by Cohn & Lyle (Anal. Biochem. 14(3): 434-440, 1966).
# (§3) Group 4 received no treatment.
# cardiac troponin T = experiment: In vivo cardiotoxicity (I): serum levels of cardiac troponin-T (cTnT); set-up: species or system Adult female Wistar rats; conditions: weekly iv […] Dox, rats
# Experimental: as §1
# Prior to the commencement of the study, blood (500 μL) was collected from each rat via a tail vein bleed procedure. Blood was collected in 1.5 mL Capiject tube and allowed to clot for a minimum of 30 minutes. […] After pre-bleeds, each experimental animal was injected with respective drug combination or control treatment and 24 hours after administration the rats were tail-bled and processed as described above. Thereafter, animals were injected with drug combinations at weekly intervals for 12 weeks, and blood was collected 24 hours after treatment.
# cardiac myocytes [3] = experiment: In vivo cardiotoxicity (II): myocardial pathology by transmission electron microscopy (vacuolated myocytes); set-up: species or system Adult female spontaneously hypertensive rats; conditions: cumulative Dox 13 mg/kg, 12 weeks
# From the text: as §2, §3
# For analyses, tissue processing and assays of antioxidant enzymes and GSH, were carried out as described in Example 2. Analysis of cardiac damage by transmission electron microscopy was also carried out as described in Example 2.
# To minimize anatomical variation across treatment groups, samples of the lateral border of the left ventricle were processed for EM analysis.
# [4] = In vivo cytotoxicity (I): metabolic stress (daily body weight); set-up: species or system Male F1 mice (C57×CBA)
# From the text: All treatment groups were monitored for weight loss on a daily basis. At the end of the study the data were expressed as percentage of original body mass and graphed in this maimer.
# neutrophils = experiment: Phase I clinical trial of doxorubicin + HA (HyDox) in advanced cancer: toxicity, neutrophil counts; format: in vivo, patients
# From the text: The eligibility criteria, for inclusion in this study, were as follows: Patients must have advanced or metastatic cancer, histologically or cytologically confirmed. Patients were not to have had previous chemotherapy or were to have had no more than one prior chemotherapy regime and were not to have had prior anthracyclines. Patients were to be aged between 18 and 75 years with ambulatory performance status and adequate bone marrow, liver and renal function.
# The treatment plan provided that, in the first chemotherapy cycle, patients be randomized to receive Dox alone or Dox plus HA. The converse applied in the second cycle. In the subsequent four cycles, patients received Dox plus HA. This allowed each patient to act as his/her own control in the toxicity analysis in the first two cycles, reducing the possibility of inter-patient variability affecting result interpretation.
# Injectable sodium chloride was obtained from Baxter Healthcare, Sydney, Australia, as supplied as a 500 ml infusion bag.
# Therefore, the initial dose level was 30 mg/m^2, the next 45 mg/m^2 and the next 60 mg/m^2.
# [5] = In vivo cytotoxicity (I): general toxicity (survival); conditions: 24 mg/kg Dox, single iv bolus, 14 days
# Experimental: Male F1 mice (C57×CBA; 11-13 weeks old), used for in vivo studies, were obtained from The Animal Central Division (Monash University, Victoria, Australia). The mice were distributed at random into each treatment group (6 per treatment group) and allowed to acclimatize for 2-3 weeks before commencing the study. […] Before a treatment group was started, blood (200 μL) from each experimental animal was collected by retroorbital sinus bleed and immediately transferred to tube containing EDTA, gently flick mixed and stored on ice until analysis. This was taken as day 0, after which the mice were given a single bolus intravenous injection via tail vein with corresponding control, drug, or HA/drug combinations. The mice were then sequentially bled on days 1, 4, 7, 10 and 14 by the aforementioned method. All blood samples were analyzed for white blood cell composition in an Adiva 120 Differential Coulter Counter (Bayer Diagnostics, USA). Throughout the duration of the study, mouse mass, food intake and general activity levels were recorded on a daily basis. On day 14, mice were sacrificed by cervical dislocation and the heart, lungs, liver, spleen, kidneys, stomach, intestines and testicles removed and immediately fixed in 10% v/v formalin in phosphate buffered saline.
# [6] = test system: peripheral blood neutrophils; experiment: In vivo cytotoxicity (II): daily blood neutrophil and differential counts; set-up: species or system Male F1 mice (C57×CBA)
# Experimental: For each treatment dosage a total of 6 groups (n=8 mice per group) were used. Data from each treatment group were established by staggering results of groups of 6 (counted individually), sampling each group every 4 days so that a daily assessment could be established. Each group was treated as described above, prior to the drug administration. -Throughout this study, blood was collected and analyzed for neutrophil content as outlined in previous examples.
# Again, to normalize the data for comparison between treatments, neutropenia was expressed as a percentage of neutrophils on day 0 (before drug administration).
compound,measurement,setting,value
"COc1cccc2c1C(=O)c1c(O)c3c(c(O)c1C2=O)C[C@@](O)(C(=O)CO)C[C@@H]3O[C@H]1C[C@H](N)[C@H](O)[C@H](C)O1 [Dox, doxorubicin]",Appearance of myocytes in the heart (electron micrographs),cardiac myocytes [1],vacuolated myocytes
same,Cardiac glutathione peroxidase levels,Glutathione peroxidase,equally increased
same,Level of hepatic GSH,[2],remained unchanged
same,Cumulative dose of Dox at which cardiotoxicity (serum troponin T release) begins,cardiac troponin T,9 mg/kg
same,Myocyte vacuolation compared with the HyDox group,cardiac myocytes [3],almost two-three-fold greater
same,"Maximum weight loss, % of original body mass",[4]; 9 mg/kg Dox,~−10%
same,Original body mass lost,"[4]; 12 mg/kg Dox, by day 11",~13%
same,Original weight lost,"[4]; 24 mg/kg dosage group, by day 7",~25%
same,Neutrophils as % of Day 1,"neutrophils; Patient 1, Cycle 2, 30 mg/m2, day 1",100%
same,Neutrophils as % of Day 1,"neutrophils; Patient 1, Cycle 2, 30 mg/m2, day 6",100%
same,Neutrophils as % of Day 1,"neutrophils; Patient 1, Cycle 2, 30 mg/m2, day 8",109%
same,Neutrophils as % of Day 1,"neutrophils; Patient 1, Cycle 2, 30 mg/m2, day 10",109%
same,Neutrophils as % of Day 1,"neutrophils; Patient 1, Cycle 2, 30 mg/m2, day 13",83%
same,Neutrophils as % of Day 1,"neutrophils; Patient 1, Cycle 2, 30 mg/m2, day 15",57%
same,Neutrophils as % of Day 1,"neutrophils; Patient 1, Cycle 2, 30 mg/m2, day 20",57%
same,Neutrophils as % of Day 1,"neutrophils; Patient 1, Cycle 2, 30 mg/m2, day 21",74%
same,Neutrophils as % of Day 1,"neutrophils; Patient 1, Cycle 3, 30 mg/m2, day 1",100%
same,Neutrophils as % of Day 1,"neutrophils; Patient 2, Cycle 1, 30 mg/m2, day 1",100%
same,Neutrophils as % of Day 1,"neutrophils; Patient 2, Cycle 1, 30 mg/m2, day 4",120%
same,Neutrophils as % of Day 1,"neutrophils; Patient 2, Cycle 1, 30 mg/m2, day 8",132%
same,Neutrophils as % of Day 1,"neutrophils; Patient 2, Cycle 1, 30 mg/m2, day 10",78%
same,Neutrophils as % of Day 1,"neutrophils; Patient 2, Cycle 1, 30 mg/m2, day 15",54%
same,Neutrophils as % of Day 1,"neutrophils; Patient 2, Cycle 1, 30 mg/m2, day 17",40%
same,Neutrophils as % of Day 1,"neutrophils; Patient 2, Cycle 1, 30 mg/m2, day 21",86%
same,Neutrophils as % of Day 1,"neutrophils; Patient 2, Cycle 3, 30 mg/m2, day 1",100%
same,Neutrophils as % of Day 1,"neutrophils; Patient 5, Cycle 1, 30 mg/m2, day 1",100%
same,Neutrophils as % of Day 1,"neutrophils; Patient 5, Cycle 1, 30 mg/m2, day 4",78%
same,Neutrophils as % of Day 1,"neutrophils; Patient 5, Cycle 1, 30 mg/m2, day 7",70%
same,Neutrophils as % of Day 1,"neutrophils; Patient 5, Cycle 1, 30 mg/m2, day 9",73%
same,Neutrophils as % of Day 1,"neutrophils; Patient 5, Cycle 1, 30 mg/m2, day 12",49%
same,Neutrophils as % of Day 1,"neutrophils; Patient 5, Cycle 1, 30 mg/m2, day 14",38%
same,Neutrophils as % of Day 1,"neutrophils; Patient 5, Cycle 1, 30 mg/m2, day 16",32%
same,Neutrophils as % of Day 1,"neutrophils; Patient 5, Cycle 1, 30 mg/m2, day 19",38%
same,Neutrophils as % of Day 1,"neutrophils; Patient 5, Cycle 1, 30 mg/m2, day 21",59%
same,Neutrophils as % of Day 1,"neutrophils; Patient 5, Cycle 3, 30 mg/m2, day 1",100%
same,Neutrophils as % of Day 1,"neutrophils; Patient 7, Cycle 1, 45 mg/m2, day 1",100%
same,Neutrophils as % of Day 1,"neutrophils; Patient 7, Cycle 1, 45 mg/m2, day 4",46%
same,Neutrophils as % of Day 1,"neutrophils; Patient 7, Cycle 1, 45 mg/m2, day 8",56%
same,Neutrophils as % of Day 1,"neutrophils; Patient 7, Cycle 1, 45 mg/m2, day 10",41%
same,Neutrophils as % of Day 1,"neutrophils; Patient 7, Cycle 1, 45 mg/m2, day 12",35%
same,Neutrophils as % of Day 1,"neutrophils; Patient 7, Cycle 1, 45 mg/m2, day 15",19%
same,Neutrophils as % of Day 1,"neutrophils; Patient 7, Cycle 1, 45 mg/m2, day 17",14%
same,Neutrophils as % of Day 1,"neutrophils; Patient 7, Cycle 1, 45 mg/m2, day 19",21%
same,Neutrophils as % of Day 1,"neutrophils; Patient 7, Cycle 3, 45 mg/m2, day 1",100%
same,Neutrophils as % of Day 1,"neutrophils; Patient 8, Cycle 2, 45 mg/m2, day 1",100%
same,Neutrophils as % of Day 1,"neutrophils; Patient 8, Cycle 2, 45 mg/m2, day 4",84%
same,Neutrophils as % of Day 1,"neutrophils; Patient 8, Cycle 2, 45 mg/m2, day 8",85%
same,Neutrophils as % of Day 1,"neutrophils; Patient 8, Cycle 2, 45 mg/m2, day 10",39%
same,Neutrophils as % of Day 1,"neutrophils; Patient 8, Cycle 2, 45 mg/m2, day 12",81%
same,Neutrophils as % of Day 1,"neutrophils; Patient 8, Cycle 2, 45 mg/m2, day 15",62%
same,Neutrophils as % of Day 1,"neutrophils; Patient 10, Cycle 1, 60 mg/m2, day 1",100%
same,Neutrophils as % of Day 1,"neutrophils; Patient 10, Cycle 1, 60 mg/m2, day 4",93%
same,Neutrophils as % of Day 1,"neutrophils; Patient 10, Cycle 1, 60 mg/m2, day 6",63%
same,Neutrophils as % of Day 1,"neutrophils; Patient 10, Cycle 1, 60 mg/m2, day 8",33%
same,Neutrophils as % of Day 1,"neutrophils; Patient 10, Cycle 1, 60 mg/m2, day 10",4%
same,Neutrophils as % of Day 1,"neutrophils; Patient 10, Cycle 1, 60 mg/m2, day 13",3%
same,Neutrophils as % of Day 1,"neutrophils; Patient 10, Cycle 1, 60 mg/m2, day 17",20%
same,Neutrophils as % of Day 1,"neutrophils; Patient 10, Cycle 1, 60 mg/m2, day 20",47%
same,Neutrophils as % of Day 1,"neutrophils; Patient 12, Cycle 1, 60 mg/m2, day 1",100%
same,Neutrophils as % of Day 1,"neutrophils; Patient 12, Cycle 1, 60 mg/m2, day 4",124%
same,Neutrophils as % of Day 1,"neutrophils; Patient 12, Cycle 1, 60 mg/m2, day 7",95%
same,Mice that survived until the end of the study,[5],2 mice
same,Duration of nadir neutropenia,[6]; 12 mg/kg,2 days
same,Onset of nadir neutropenia,[6]; 12 mg/kg,4 days
same,Duration of nadir neutropenia before recovery,[6]; 16 mg/kg,> 48 h
